Test results from US9139546B2, “Tri-aryl/heteroaromatic cannabinoids and use thereof” (priority 2007, dated 2015).
Read-outs that look alike come from different tables or passages of the source.

Key:
human CB2 receptor = human CB2 receptor (Homo sapiens (Human), UniProt P34972); experiment: Receptor binding assay, CB2 ([3H]CP 55,940 displacement); conditions: for CB1/CB2: ratio of Ki CB-1 to Ki CB-2; for Ki: as repeated in the anti-inflammatory table, read-out: CB-2 Ki
Description: (§1) The assays were carried out in 96 well plates obtained from Millipore, Inc. fitted with glass fiber filters (hydrophilic, GFC filters) having a pore size of 1.2μ. The filters were soaked with 0.05% polyethyleneimine solution and washed 5× with deionized water prior to carrying out the assays. The filtrations were carried out on a 96 well vacuum manifold (Millipore Inc.), the filters punched out with a pipette tip directly into scintillation vials at the end of the experiment and vials filled with 5 ml scintillation cocktail Ecolite (+) (Fisher Scientific). Counting was carried out on a Beckmann Scintillation Counter model LS6500. Drug solutions were prepared in DMSO and the radioligand was dissolved in ethanol.
(§2) 50 mM TRIS-HCl, 5 mM MgCl2, 2.5 mM EDTA, 0.5 mg/ml fatty acid free bovine serum albumin, pH 7.4.
(§3) The membranes were filtered and the filters washed 7× with 0.2 ml ice-cold incubation buffer and allowed to air dry under vacuum.
(§4) Final data are presented as Ki±S.E.M. of n≧3 experiments.

CXCL-8 = CXCL-8 level in supernatant of TNF-α treated A549 cells (multiplex bead immunoassay); assay type: cell-based, human; conditions: A549, 10 ng/mL TNF-α, 18 hours
Description: (§5) Human lung adenocarcinoma cell line A549 (alveolar type II epithelial-like) cells (ATCC, Manassas, Va.) were maintained in growth media consisting of DMEM supplemented with 10% heat-inactivated fetal calf serum, 2 mM L-glutamine, 100 U/ml penicillin, and 100 μg/ml streptomycin.
(§6) One day prior to treatment, A549 cells were seeded in 24 well culture plates at 6×10^4 cells/well in 1 mL of DMEM containing 1% FCS. On the day of treatment, media was aspirated. Following PBS wash, 1 mL of media containing 1% FCS, 10 ng/mL TNF-α, and varying concentrations of test compounds was added. Samples were collected at 18 hours and immediately transferred to −80° C. until the day of analysis.
(§7) Levels of IL-6 and CXCL-8 were measured in cell culture supernatant using the Multiplex Bead Immunoassay Kit (Biosource, Camarillo, Calif.) paired with the Luminex® 200™ System. Standard solutions were prepared by serial dilution in a 50% media, 50% buffer solution so that they were in the same matrix as the samples. Standards and samples were mixed with a solution containing beads coated with capture antibodies specific for IL-6 and CXCL-8. Each capture antibody is bound to a specific bead population with a known internal fluorescence. The Luminex system can differentiate between internal fluorescence of beads allowing detection of multiple analytes in the same well. Following overnight incubation to allow complexation of protein with capture antibodies, wells were washed and beads resuspended in assay buffer. Biotinylated reporter antibodies specific for IL-6 and CXCL-8 were added and incubated for 1.5 hours. Unbound antibodies were removed by washing, and Streptavidin-Phycoerythrin (PE) was added and incubated 30 minutes. Streptavidin binds to biotin on the reporter antibodies. Unbound reagents were removed and samples were analyzed by the Luminex system. This system utilizes a flow cytometry system and lasers capable of exciting the internal dyes of the beads and PE. The machine separates signals from beads with different internal fluorescence and measures fluorescence intensity from PE bound to these beads through protein-antibody interactions. This fluorescence intensity is reported as the median of 100 beads per cytokine in each well. Concentrations were interpolated by fitting fluorescence intensity from unknowns to the standard curves.
(§8) Cells treated with the pro-inflammatory cytokine TNF-α increase production of IL-6 and CXCL-8 when compared to cells not treated with TNF-α. Cells treated with anti-inflammatory compounds block the inflammatory effect of TNF-α and produce IL-6 and CXCL-8 levels similar to cells that are not treated with TNF-α.

human CB1 receptor = human CB1 receptor (Homo sapiens (Human), UniProt P21554); experiment: Receptor binding assay, CB1 ([3H]CP 55,940 displacement); conditions: as repeated in the anti-inflammatory table; read-out: CB-1 Ki
Chain of human CB1 receptor (P21554 whole entry): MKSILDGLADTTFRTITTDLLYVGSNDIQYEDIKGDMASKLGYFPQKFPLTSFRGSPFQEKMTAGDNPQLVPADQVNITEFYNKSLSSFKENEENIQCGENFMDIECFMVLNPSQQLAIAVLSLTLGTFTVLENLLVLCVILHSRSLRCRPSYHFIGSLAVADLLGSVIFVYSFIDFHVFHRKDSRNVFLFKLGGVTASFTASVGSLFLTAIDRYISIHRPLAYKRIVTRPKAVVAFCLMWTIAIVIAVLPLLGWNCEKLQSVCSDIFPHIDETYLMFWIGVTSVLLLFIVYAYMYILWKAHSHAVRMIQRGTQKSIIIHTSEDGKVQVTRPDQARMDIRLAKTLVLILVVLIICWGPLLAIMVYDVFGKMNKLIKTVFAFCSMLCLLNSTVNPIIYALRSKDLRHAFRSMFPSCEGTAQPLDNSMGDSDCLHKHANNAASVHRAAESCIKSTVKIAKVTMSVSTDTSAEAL
Description: as §1, §2, §3, §4

NF-κB = NF-κB SEAP reporter assay in TNF-α treated A549 cells; assay type: cell-based; conditions: Homo sapiens, read-out: NF-κB Reduction; for inhibition at 0.01 µM: 10 nM compound
Description: as §5
The plasmid pNF-κB-SEAP-NPT was kindly provided by Dr. Y. S. Kim of the Seoul National University. This plasmid contains a secreted alkaline phosphatase (SEAP) reporter gene coupled with the κB response element. Upon activation, NF-κB translocates to the nucleus and binds to the κB response element causing transcriptional activation. This activation drives production of the SEAP reporter, which is secreted into the cell culture supernatant where it can be measured. The neomycin phosphotransferase (NPT) region of the plasmid provides resistance to the antibiotic G-418.
A549 cells were stably transfected with pNF-κB-SEAP-NPT using GeneJammer Transfection Reagent (Stratagene, La Jolla, Calif.) per manufacturer's protocol. G-418 (500 μg/ml) was added 24 hrs after transfection to select for stable transfection of NF-κB. Resistant colonies were selected and maintained in growth media supplemented with 500 μg/ml G-418.
Previous experiments have shown A549 cells respond to the pro-inflammatory cytokine TNF-α by activation of the pro-inflammatory transcription factor, NF-κB. This effect is dose dependent with the maximum effect seen at 10 ng/mL TNF-α. Compounds with anti-inflammatory activity can be used to inhibit this activation of NF-κB.
One day prior to treatment, transfected cells were seeded in 24 well culture plates at 6×10^4 cells/well in 1 mL of DMEM containing 1% FCS. On the day of treatment, media was aspirated. Following PBS wash, 1 mL of media containing 1% FCS, 10 ng/mL TNF-α, and varying concentrations of test compounds was added. Cell culture supernatant was collected at 18 hours. SEAP production was measured in 50 μL of supernatant using the Great EscAPe™ chemiluminescence kit (Clontech, Mountain View, Calif.). Briefly, samples were incubated at 65° C. for 30 minutes to inactivate endogenous alkaline phosphate. Following a 5-minute equilibration with assay buffer, chemiluminescent substrate and enhancer was added. Chemiluminescence was measured after 10 minutes. Higher levels of chemiluminescence result from increased SEAP production and correspond to NF-κB activity. Compounds capable of inhibiting NF-κB activation due to TNF-α are determined by a reduction in chemiluminescence values when cells are treated with TNF-α and test compound versus cells treated with TNF-α alone.

IL-6 = IL-6 level in supernatant of TNF-α treated A549 cells (multiplex bead immunoassay); assay type: cell-based, human; conditions: A549, 10 ng/mL TNF-α, 18 hours
Description: as §5, §6, §7, §8

[1] = tested on: BxPC-3 pancreatic cancer cells; experiment: Anti-cancer activity, WST-8 cell viability, BxPC-3; assay type: cell-based; conditions: Homo sapiens, BXPC-3; cell death at 18 hours, WST-8; n.a. = no activity; read-out: BxPC-3 pancreatic EC50
Description: (§9) A representative group of compounds (shown below) was tested for anti-cancer activity against human lung (DMS-135 and H69AR), prostate (DU-145), colorectal (HCT-15), and pancreatic (BxPC-3) cancer cell lines using the methodology described below, providing results shown in Table 3.
(§10) Human cancer cells DU-145, DMS-135, H69AR, HCT-15, and BxPC-3 (American Type Culture Collection, ATCC) were cultured in supplemented media according to the recommendations of the supplier. Cells lines were plated in 96-well flat-bottom plates at 70% confluency in a 100 μl total volume of supplemented media as indicated, and incubated overnight at 37° C. to allow for adherence. The cultures were inoculated with escalating amounts of drug and cell death was analyzed at 18 hours, using the BioTek Synergy 2 Multidetection Microplate Reader. The percentage of viable cells present in the culture at each time point was calculated by comparing the absorbance value at 450 nm from the WST-8 assay (Pojindo Molecular Technologies) for each condition with untreated control cells.

[2] = tested on: DU-145 prostate cancer cells; experiment: Anti-cancer activity, WST-8 cell viability, DU-145; assay type: cell-based; conditions: Homo sapiens
Description: as §9, §10

[3] = tested on: HCT-15 colorectal cancer cells; experiment: Anti-cancer activity, WST-8 cell viability, HCT-15; assay type: cell-based; conditions: Homo sapiens
Description: as §9, §10

[4] = tested on: DMS-135 lung cancer cells; experiment: Anti-cancer activity, WST-8 cell viability, DMS-135; assay type: cell-based; conditions: Homo sapiens
Description: as §9, §10

H69AR lung cancer cells = experiment: Anti-cancer activity, WST-8 cell viability, H69AR; assay type: cell-based; conditions: Homo sapiens
Description: as §9, §10

[5] = DU-145, cell death at 18 hours, WST-8, n.a. = no activity, read-out: DU-145 prostate EC50
[6] = HCT-15, cell death at 18 hours, WST-8, n.a. = no activity, read-out: HCT-15 colorectal EC50
[7] = cell death at 18 hours, WST-8, n.a. = no activity, read-out: DMS-135 lung EC50
[8] = DU-145, 18 h, read-out: DU-145 prostate EC50 (μM)
[9] = 18 h, read-out: H69AR lung EC50 (μM)
[10] = 18 h, read-out: DMS-135 lung EC50 (μM)

## CC(C)(c1ccccc1)c1ccc(-c2cc(Cl)cc(Cl)c2)c(O)c1 [Compound 42, 3′,5′-dichloro-4-(2-phenylpropan-2-yl)biphenyl-2-ol]
Human CB2 receptor
  CB1/CB2: 142.1

## COc1cc(C(O)c2cccs2)cc(OC)c1-c1cc(Cl)cc(Cl)c1 (stereo not drawn) [Compound 16, (3′,5′-dichloro-2,6-dimethoxybiphenyl-4-yl)(thiophen-2-yl)methanol]
CXCL-8; 4 μM compound
  CXCL-8 Reduction: 80%
Human CB1 receptor
  Ki: > 1000 nM
Human CB2 receptor
  Ki: 0.27 nM
  CB1/CB2: 3700
NF-κB; 4 μM compound, A549, 10 ng/mL TNF-α, 18 hours
  inhibition at 4 µM: 45%
IL-6; 4 μM compound
  IL-6 Reduction: 90%

## COc1cc(C(=O)c2cccs2)cc(O)c1-c1cc(Cl)cc(Cl)c1 [Compound 30, (3′,5′-dichloro-2-hydroxy-6-methoxybiphenyl-4-yl)(thiophen-2-yl)methanone]
Human CB1 receptor
  Ki: 503 nM
Human CB2 receptor
  Ki: 2.32 nM
  CB1/CB2: 217
NF-κB; A549, 18 h
  inhibition at 1 µM: 40%
IL-6; 1 μM compound
  IL-6 Reduction: 45%

## COc1cc(C(O)c2ccccc2)cc(OC)c1-c1cc(Cl)cc(Cl)c1 (stereo not drawn) [Compound 15]
[1]
  EC50: 11600 nM
Human CB1 receptor
  Ki: > 1000 nM
Human CB2 receptor
  Ki: 1.66 nM
  CB1/CB2: 602
NF-κB; 100 nM compound, A549, 10 ng/mL TNF-α, 18 hours
  inhibition at 0.1 µM: 30%
[2]; [5]
  EC50: 18.4 µM
[3]; [6]
  EC50: 348 µM
IL-6; 100 nM compound
  IL-6 Reduction: 55%
[4]; [7]
  EC50: 6.2 µM

## O=C(c1ccccc1)c1cc(O)c(-c2cc(Cl)cc(Cl)c2)c(O)c1 [Compound 28, (3′,5′-dichloro-2,6-dihydroxybiphenyl-4-yl)(phenyl)methanone]
[1]
  EC50: 4000 nM
CXCL-8; 1 μM compound
  CXCL-8 Reduction: 5%
Human CB1 receptor
  Ki: 27 nM
Human CB2 receptor
  Ki: 2.94 nM
  CB1/CB2: 9.18
NF-κB; 1 μM compound, A549, 10 ng/mL TNF-α, 18 hours
  inhibition at 1 µM: 35%
[2]; [5]
  EC50: 5.4 µM
[3]; [6]
  EC50: 0.8 µM
H69AR lung cancer cells; cell death at 18 hours, WST-8, n.a. = no activity, read-out: H69AR lung EC50
  EC50: 2.4 µM
IL-6; 1 μM compound
  IL-6 Reduction: 15%
[4]; [7]
  EC50: 11.8 µM

## Cc1cccc(-c2c(O)cc(C(C)(C)c3cccs3)cc2O)c1 [Compound 43, 3′-methyl-4-(2-(thiophen-2-yl)propan-2-yl)biphenyl-2,6-diol]
Human CB2 receptor
  CB1/CB2: 0.05

## COc1cc(C(C)(C)c2ccccc2)cc(O)c1-c1cc(Cl)cc(Cl)c1 [Compound 47]
[2]; [8]
  EC50: 1.4 µM
[3]; HCT-15, 18 h, read-out: HCT-15 colorectal EC50 (μM)
  EC50: 4.2 µM
H69AR lung cancer cells; [9]
  EC50: 12.2 µM
[4]; [10]
  EC50: 0.9 µM

## Cc1cccc(-c2ccc(C(=O)c3ccccc3)cc2O)c1 [Compound 25, (2-hydroxy-3′-methylbiphenyl-4-yl)(phenyl)methanone]
Human CB1 receptor
  Ki: > 1000 nM
Human CB2 receptor
  Ki: 454 nM
  CB1/CB2: 2.21
NF-κB; A549, 10 ng/mL TNF-α, 18 hours
  inhibition at 0.01 µM: 15%

## CC(C)(c1ccc(-c2cc(Cl)cc(Cl)c2)c(O)c1)c1cccs1 [Compound 45, 3′,5′-dichloro-4-(2-(thiophen-2-yl)propan-2-yl)biphenyl-2-ol]
Human CB2 receptor
  CB1/CB2: 0.46

## CC(C)(c1ccccc1)c1cc(O)c(-c2cc(Cl)cc(Cl)c2)c(O)c1 [Compound 41, 3′,5′-dichloro-4-(2-phenylpropan-2-yl)biphenyl-2,6-diol]
Human CB2 receptor
  CB1/CB2: 87.5
[2]; [8]
  EC50: 1.4 µM
H69AR lung cancer cells; [9]
  EC50: 1.8 µM
[4]; [10]
  EC50: 1.5 µM

## O=C(c1cc(O)c(-c2cc(Cl)cc(Cl)c2)c(O)c1)c1cccs1 [Compound 31, (3′,5′-dichloro-2,6-dihydroxybiphenyl-4-yl)(thiophen-2-yl)methanone]
Human CB1 receptor
  Ki: > 1000 nM
Human CB2 receptor
  Ki: 1.75 nM
  CB1/CB2: 571
NF-κB; A549, 10 ng/mL TNF-α, 18 hours
  inhibition at 0.01 µM: 55%
IL-6; 10 nM compound
  IL-6 Reduction: 35%

## Cc1cccc(-c2ccc(C(C)(C)c3ccccc3)cc2O)c1 [Compound 39, 3′-methyl-4-(2-phenylpropan-2-yl)biphenyl-2-ol]
Human CB2 receptor
  CB1/CB2: 8.87

## Cc1cccc(-c2c(O)cc(C(C)(C)c3ccccc3)cc2O)c1 [Compound 40, 3′-Methyl-4-(1-methyl-1-phenyl-ethyl)-biphenyl-2,6-diol]
Human CB2 receptor
  CB1/CB2: 20.30

## CC(C)(c1cc(O)c(-c2cc(Cl)cc(Cl)c2)c(O)c1)c1cccs1 [Compound 44, 3′,5′-dichloro-4-(2-(thiophen-2-yl)propan-2-yl)biphenyl-2,6-diol]
Human CB2 receptor
  CB1/CB2: 0.41
